We go through one compound from publication PMC9268243, “Metabolic Behaviors of Aconitum Alkaloids in Different Concentrations of Aconiti Lateralis Radix Praeparata and Effects of Aconitine in Healthy Human and Long QT Syndrome Cardiomyocytes” (Molecules, 2022).

In one data set the test system is LQTS hiPSC-CMs. As to the kind of experiment: Whole-cell current-clamp action potential recording, LQTS hiPSC-CMs. The format is cell-based, human. The conditions noted are these: LQTS hiPSC-CMs, 0.05, 0.5 and 5 μM, 1 Hz stimulation. An excerpt: Standard patch-clamp techniques were used to record action potentials, and L-type calcium currents. Composition of intracellular fluid and extracellular fluid were shown in Table 7 and Table 8, respectively. The signal was amplified using an HEKA EPC-10 patch-clamp amplifier (HEKA, Electronics, Ludwigshafen, Germany) and low-pass filtered at 5 kHz. Patch pipettes were fabricated from glass capillaries using a Sutter P-97 microelectrode puller (Novato, CA, USA) and the tips were heat polished with a microforge (NARISHIGE MF-900) to gain a resistance of 2–5 MΩ. Data acquisition was achieved using HEKA Patchmaster (V2x73.2). Data analysis and fit were performed using Clamfit and Graphpad Prism 6.0. The experiment was conducted at 37 °C. One cell can test one or more drugs, or multiple concentrations of the same drug but needs to be rinsed with extracellular fluid between each test. Nifedipine (Sigma) was used as a positive control to ensure cell quality. External solution containing 0.1% DMSO was applied as vehicle to establish the baseline. Recording was done at a temperature-controlled room of 35–37 degrees Celsius.
Isoproterenol, nifedipine, and AC were purchased from Sigma-Aldrich, which were resolved in DMSO (Sigma-Aldrich, D2650). Drug compounds final concentration were AC (0.05, 0.5,5 μM), nifedipine (1 μM), isoproterenol (3 μM), respectively. […]

Another data set deals with normal hiPSC-CMs. As to the kind of experiment: Ca2+ imaging of calcium transients, normal hiPSC-CMs. The format is cell-based, human. The note with it: compared with the control group. On the procedure: Dissociated day 30–33 post-differentiation hiPSC-CMs (healthy and LQT specific patient) were reseeded Matrigel-coated plate in HELP4004 (HELP) and were treated with 5 μM Fluo-3 AM and 0.02% Pluronic (Life Technologies) in DMEM/F12 (Gibco) for 60 min at 37 °C. Cells were washed with DMEM/F12 without fluorochrome solution afterwards for 30 min, replaced the solution with Tyrode’s solution. Ca^2+ imaging was conducted using Olympus IX71 confocal microscope (Olympus IX71, Tokyo, Japan) and analyzed using Olympus imaging software. Ca^2+ spontaneous transients were obtained using a single cell line scan mode at 37 °C.
Isoproterenol, nifedipine, and AC were purchased from Sigma-Aldrich, which were resolved in DMSO (Sigma-Aldrich, D2650). Drug compounds final concentration were AC (0.05, 0.5,5 μM), nifedipine (1 μM), isoproterenol (3 μM), respectively. Dilutions were prepared within 60 min of treatment. All the compound solutions were subjected to regular 10 min ultrasound and oscillations to ensure that compounds were completely dissolved. Equal amounts of DMSO (0.1%) were used as the vehicle controls.

Data set [1] is described as follows: Pharmacokinetic study of six aconitum alkaloids in rat plasma after oral Fu Zi extracts (UPLC-MS/MS). The format is in vivo, Sprague Dawley rats. The conditions noted are these: both sexes, Sprague Dawley, in vivo, SD rat plasma, mean ± SD, n = 8; for AUC(0-t): read-out: AUC(0–48h); for CL/F: read-out: CLz/F (converted); for Vd/F: read-out: Vz/F; for half-life: read-out: t1/2z (converted). The procedure: Fu Zi (200 g) was taken and broken by a pulverizer to the size of 0.5–1.0 cm. The broken Fu Zi was soaked in 1.6 L distilled water and boiled for 0.5 h. The filtrate was collected and the previous step was repeated for the filtered residue. The mixed filtrates were precipitated with 60% ethanol, and then centrifuged (2000× g, 10 min). The supernatant was decompressed and concentrated to a final density of 2.0 g/mL by the amount of the crude drugs. The final concentration of ethanol in Fu Zi extracts before administration was below 0.5%. The extract was subsequently kept at −20 °C for oral administration to rats.
All samples were analyzed on UPLC® I-Class and Xevo® TQS mass spectrometry combined system. Separations by a Waters ACQUITY UPLC® HSS T3(2.1 mm × 100 mm, 1.8 μm) column were conducted with a mobile phase of water (A) and acetonitrile (B), both containing 0.1% formic acid, at the flow rate of 0.3 mL·min^−1.The run time was 5.0 min and the gradient elution program was adopted as follows: 0–0.3 min, 10% B; 0.3–1 min, 10–50% B; 1–2.5 min, 50–90% B; 2.5–3 min, 90% B; 3–5 min, 10% B. The temperature of the column and samples were set at 45 °C and 10 °C, respectively. The volume of injection was 2 μL.
The detection was quantified by a triple quadrupole mass spectrometer that was set as multiple reactive monitoring (MRM) in the electrospray positive ionization mode (ESI+). The correlative parameters were as follows: capillary voltage: 3 kV; desolvation gas flow: 800 L·h^−1; cone gas flow: 150 L·h^−1; source temperature: 150 °C; desolvation temperature: 500 °C.
The method of […] was utilized. An amount of 100 μL of plasma samples from rats after oral administration of Fu Zi extracts was precipitated with 300 μL of 50% acetonitrile plus 50% methanol, vortexed for 1.0 min and centrifuged at a speed of 12,000× g at 4 °C for 10 min. The supernatant was transferred to another 1.5 mL centrifuge tube, dried with a stream of nitrogen at 40 °C, redissolved in 50 μL methanol and centrifuged at 12,000× g for 10 min. Then, the supernatant was pipetted out into the autosampler vials and analyzed by UPLC-MS/MS system.
24 Sprague Dawley rats (half male and female, weight 180–220 g) were purchased from Beijing Weitong Lihua Biotechnology Co.Ltd. (Beijing, China). The license number of experimental animal production was SCXK (Jing) 2016–0006. The animals were maintained under a standard laboratory condition (humidity: 40–70%, room temperature: 20–26 °C, […], 12 h dark-light cycle) and fed separately. All animal experiments were conducted according to the Guide for the Care and Use of Laboratory Animals (National Research Council of the USA, 1996) and approved by the Institutional Animal Care and Use Committee (IACUC-DWZX-2020-776). After 5 days of acclimation, the rats were fasted for 12 h but provided with water freely before the experiments. The rats were randomly divided into 3 groups: high (2.0 g/kg), middle (1.0 g/kg), and low (0.5 g/kg) dose groups. The Fu Zi extracts was administered to each rat intragastrically. An equivalent of 0.20 mL blood samples were collected from the fossa orbitalis vein into 1.5 mL heparinized centrifuge tubes at the designated time points after dosing: 0.08, 0.25, 0.5, 1, 2, 4, 8, 12, 24, and 48 h. The plasma samples were pipetted out into another 1.5 mL centrifuge tubes after being centrifuged at 5000× g for 10 min and then stored at −20 °C until further analysis.
The data were acquired by […] from Waters (UNIFI). Microsoft Office Excel and the SPSS software (Version 13.0) was used for data analysis. The data below the LLOQ were regarded as zero in summary statistics. The pharmacokinetic parameters were calculated by DAS pharmacokinetic program (Version 2.0) and all analyzed by non-compartmental method. […] All data were presented as mean ± SD. […]

Each structure is given as a SMILES string. Read-outs that look alike come from different tables or passages of the source.

For orientation: Cmax means the maximum level reached in the sampled fluid or tissue. For orientation: Tmax means the time from dosing to the highest level.

On to `CCN1C[C@]2(COC)[C@H](O)C[C@H](OC)[C@@]34[C@@H]5C[C@@]6(O)[C@H](OC(=O)c7ccccc7)[C@@H]5[C@@](OC(C)=O)([C@@H]([C@H](OC)[C@H]23)[C@@H]14)[C@@H](O)[C@@H]6OC` [AC, aconitine], for which, in the data set on LQTS hiPSC-CMs, the APD50 result is recorded as “concentration-dependently shortened”. The “amplitude and frequency of calcium transient” value in the data set on normal hiPSC-CMs is “no significant effect”. In data set [1] (oral Fu Zi extracts 0.5 g/kg), the highest level (Cmax) was 1.28 ± 0.34 ng/mL, the Tmax came out at 4.38 ± 3.11 h, the AUC(0-t) worked out at 13.5 ± 3.28 ng·h/mL and the CL/F is 77 mL/min/kg. In data set [1] (oral Fu Zi extracts 0.5 g/kg), the Vd/F stood at 14 ± 4.33 L/kg and the half-life is 1.9 ± 0.31 h. Further, in data set [1] (oral Fu Zi extracts 1.0 g/kg), the concentration peaked (Cmax) at 1.69 ± 0.33 ng/mL, the time to peak (Tmax) was determined as 3.13 ± 1.25 h, the AUC(0-t) stood at 17.1 ± 4.68 ng·h/mL and the CL/F is 106 mL/min/kg. In data set [1] (oral Fu Zi extracts 1.0 g/kg), the Vd/F was 70 ± 33.4 L/kg and the half-life is 7.53 ± 2.74 h. In addition, in data set [1] (oral Fu Zi extracts 2.0 g/kg), the peak level (Cmax) was 2.27 ± 0.7 ng/mL, the Tmax is 1.03 ± 0.84 h, the AUC(0-t) turned out to be 23.8 ± 7.77 ng·h/mL and the CL/F was 148 mL/min/kg. In addition, in data set [1] (oral Fu Zi extracts 2.0 g/kg), the Vd/F worked out at 167 ± 80.1 L/kg and the half-life was 11.5 ± 4.3 h.
